Laboratory results published in ChEMBL document CHEMBL4049437, “Benzoisoquinolinediones as Potent and Selective Inhibitors of BRPF2 and TAF1/TAF1L Bromodomains” (J Med Chem, 2017).
Converted amounts (≈) assume the structure as drawn.

Columns and labels:
[1] = target: T1, Peregrin (Homo sapiens, UniProt P55201); experiment: Inhibition of His-tagged BRPF1 (626 to 740 residues) (unknown origin) preincubated for 15 mins followed by addition of C-terminal biotinylated synthetic K5,12 diacetylated histone H4 (1 to 20 residues) peptide as substrate measured after 1 hr by TR-FRET assay
T1 sequence (P55201 whole entry): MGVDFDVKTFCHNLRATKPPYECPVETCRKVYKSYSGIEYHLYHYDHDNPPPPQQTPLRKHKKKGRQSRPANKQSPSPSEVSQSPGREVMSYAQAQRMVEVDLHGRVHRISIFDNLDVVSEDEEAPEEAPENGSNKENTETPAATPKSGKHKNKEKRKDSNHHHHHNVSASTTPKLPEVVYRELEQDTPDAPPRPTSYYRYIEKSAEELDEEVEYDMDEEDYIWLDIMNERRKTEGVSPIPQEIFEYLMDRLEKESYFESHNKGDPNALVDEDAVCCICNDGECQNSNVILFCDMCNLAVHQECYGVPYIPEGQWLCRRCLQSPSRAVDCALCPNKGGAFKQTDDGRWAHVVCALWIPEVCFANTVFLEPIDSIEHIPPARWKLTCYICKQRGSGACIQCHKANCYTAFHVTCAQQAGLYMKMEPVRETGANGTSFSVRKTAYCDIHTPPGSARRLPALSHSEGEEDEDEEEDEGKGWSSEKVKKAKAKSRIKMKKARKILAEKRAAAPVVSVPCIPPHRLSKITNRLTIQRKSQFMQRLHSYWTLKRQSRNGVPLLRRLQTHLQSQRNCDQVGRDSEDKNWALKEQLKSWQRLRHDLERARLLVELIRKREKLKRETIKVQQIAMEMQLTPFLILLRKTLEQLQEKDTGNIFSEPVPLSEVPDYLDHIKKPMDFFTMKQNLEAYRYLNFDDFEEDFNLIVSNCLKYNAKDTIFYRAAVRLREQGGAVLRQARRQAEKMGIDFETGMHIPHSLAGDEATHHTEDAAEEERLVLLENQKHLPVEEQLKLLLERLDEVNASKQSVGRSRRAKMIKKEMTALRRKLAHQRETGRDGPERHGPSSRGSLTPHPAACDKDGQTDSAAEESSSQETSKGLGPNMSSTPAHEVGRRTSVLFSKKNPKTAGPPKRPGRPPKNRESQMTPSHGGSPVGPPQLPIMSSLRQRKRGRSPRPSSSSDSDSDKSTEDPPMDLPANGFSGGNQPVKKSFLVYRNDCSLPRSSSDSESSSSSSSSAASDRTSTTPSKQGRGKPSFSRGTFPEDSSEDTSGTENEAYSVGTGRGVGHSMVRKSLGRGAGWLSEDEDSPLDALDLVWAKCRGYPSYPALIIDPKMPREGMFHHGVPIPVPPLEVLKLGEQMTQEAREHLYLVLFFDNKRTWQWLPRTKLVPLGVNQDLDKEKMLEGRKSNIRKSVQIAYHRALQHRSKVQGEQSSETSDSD

[2] = target: T2, Bromodomain-containing protein 1 (Homo sapiens, UniProt O95696); experiment: (§1) Inhibition of human BRPF2 (563 to 688 residues) expressed in Escherichia coli BL21 (DE3)-R3-pRARE2 preincubated for 15 mins followed by addition of C-terminal biotinylated synthetic K5,12 diacetylated histone H4 (1 to 20 residues) peptide as substrate measured after 1 hr by TR-FRET assay
T2 sequence (O95696 whole entry): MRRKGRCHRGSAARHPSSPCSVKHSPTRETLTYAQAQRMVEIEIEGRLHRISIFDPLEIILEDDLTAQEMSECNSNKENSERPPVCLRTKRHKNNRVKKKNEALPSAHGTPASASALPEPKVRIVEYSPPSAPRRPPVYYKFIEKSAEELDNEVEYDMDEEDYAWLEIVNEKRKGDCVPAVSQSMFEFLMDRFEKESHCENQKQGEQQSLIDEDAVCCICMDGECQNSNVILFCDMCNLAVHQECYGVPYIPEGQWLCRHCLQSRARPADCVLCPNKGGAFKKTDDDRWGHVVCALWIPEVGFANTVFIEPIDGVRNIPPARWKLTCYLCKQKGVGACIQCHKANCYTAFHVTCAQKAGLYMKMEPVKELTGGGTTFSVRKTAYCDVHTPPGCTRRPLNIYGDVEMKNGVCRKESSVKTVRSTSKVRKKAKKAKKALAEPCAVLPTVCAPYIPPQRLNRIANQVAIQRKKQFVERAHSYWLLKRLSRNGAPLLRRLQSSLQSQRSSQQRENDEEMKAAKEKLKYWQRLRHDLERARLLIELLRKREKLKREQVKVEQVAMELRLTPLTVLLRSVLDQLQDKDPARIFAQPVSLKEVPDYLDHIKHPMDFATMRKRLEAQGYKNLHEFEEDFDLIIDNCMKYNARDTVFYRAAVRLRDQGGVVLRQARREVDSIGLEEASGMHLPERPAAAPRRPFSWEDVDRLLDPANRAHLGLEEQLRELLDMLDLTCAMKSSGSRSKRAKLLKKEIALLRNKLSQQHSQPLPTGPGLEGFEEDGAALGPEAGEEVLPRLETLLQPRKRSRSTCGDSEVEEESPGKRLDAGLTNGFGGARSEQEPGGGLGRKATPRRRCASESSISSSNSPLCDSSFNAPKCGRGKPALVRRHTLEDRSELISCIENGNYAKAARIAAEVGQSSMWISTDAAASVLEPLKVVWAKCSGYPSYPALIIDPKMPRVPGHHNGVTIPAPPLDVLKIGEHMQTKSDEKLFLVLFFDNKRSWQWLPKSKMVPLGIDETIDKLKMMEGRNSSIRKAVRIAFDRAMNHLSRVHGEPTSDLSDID

[3] = target: Transcription initiation factor TFIID subunit 1 (Homo sapiens, UniProt P21675); experiment: as §1, with “GST-tagged TAF1 BD2 (1519” for “BRPF2 (563”, “1651” for “688”, “K5,8,12,16 tetra-acetylated” for “K5,12 diacetylated”
[4] = target: T3, Bromodomain-containing protein 4 (Homo sapiens, UniProt O60885)
[5] = target: T3, Bromodomain-containing protein 4; experiment: Inhibition of BRD4 BD2 (unknown origin) preincubated for 15 mins followed by addition of C-terminal biotinylated synthetic K5,8,12,16 tetra-acetylated histone H4 (1 to 20 residues) peptide as substrate measured after 1 hr by TR-FRET assay
[6] = Aqueous solubility of the compound in DMSO at pH 6.5 after 24 hrs by HPLC-MS/MS analysis; format: physicochemical; conditions: pH 6.5, 24 h
[7] = target: T2, Bromodomain-containing protein 1

Transcription initiation factor TFIID subunit 1, sequence (P21675 whole entry): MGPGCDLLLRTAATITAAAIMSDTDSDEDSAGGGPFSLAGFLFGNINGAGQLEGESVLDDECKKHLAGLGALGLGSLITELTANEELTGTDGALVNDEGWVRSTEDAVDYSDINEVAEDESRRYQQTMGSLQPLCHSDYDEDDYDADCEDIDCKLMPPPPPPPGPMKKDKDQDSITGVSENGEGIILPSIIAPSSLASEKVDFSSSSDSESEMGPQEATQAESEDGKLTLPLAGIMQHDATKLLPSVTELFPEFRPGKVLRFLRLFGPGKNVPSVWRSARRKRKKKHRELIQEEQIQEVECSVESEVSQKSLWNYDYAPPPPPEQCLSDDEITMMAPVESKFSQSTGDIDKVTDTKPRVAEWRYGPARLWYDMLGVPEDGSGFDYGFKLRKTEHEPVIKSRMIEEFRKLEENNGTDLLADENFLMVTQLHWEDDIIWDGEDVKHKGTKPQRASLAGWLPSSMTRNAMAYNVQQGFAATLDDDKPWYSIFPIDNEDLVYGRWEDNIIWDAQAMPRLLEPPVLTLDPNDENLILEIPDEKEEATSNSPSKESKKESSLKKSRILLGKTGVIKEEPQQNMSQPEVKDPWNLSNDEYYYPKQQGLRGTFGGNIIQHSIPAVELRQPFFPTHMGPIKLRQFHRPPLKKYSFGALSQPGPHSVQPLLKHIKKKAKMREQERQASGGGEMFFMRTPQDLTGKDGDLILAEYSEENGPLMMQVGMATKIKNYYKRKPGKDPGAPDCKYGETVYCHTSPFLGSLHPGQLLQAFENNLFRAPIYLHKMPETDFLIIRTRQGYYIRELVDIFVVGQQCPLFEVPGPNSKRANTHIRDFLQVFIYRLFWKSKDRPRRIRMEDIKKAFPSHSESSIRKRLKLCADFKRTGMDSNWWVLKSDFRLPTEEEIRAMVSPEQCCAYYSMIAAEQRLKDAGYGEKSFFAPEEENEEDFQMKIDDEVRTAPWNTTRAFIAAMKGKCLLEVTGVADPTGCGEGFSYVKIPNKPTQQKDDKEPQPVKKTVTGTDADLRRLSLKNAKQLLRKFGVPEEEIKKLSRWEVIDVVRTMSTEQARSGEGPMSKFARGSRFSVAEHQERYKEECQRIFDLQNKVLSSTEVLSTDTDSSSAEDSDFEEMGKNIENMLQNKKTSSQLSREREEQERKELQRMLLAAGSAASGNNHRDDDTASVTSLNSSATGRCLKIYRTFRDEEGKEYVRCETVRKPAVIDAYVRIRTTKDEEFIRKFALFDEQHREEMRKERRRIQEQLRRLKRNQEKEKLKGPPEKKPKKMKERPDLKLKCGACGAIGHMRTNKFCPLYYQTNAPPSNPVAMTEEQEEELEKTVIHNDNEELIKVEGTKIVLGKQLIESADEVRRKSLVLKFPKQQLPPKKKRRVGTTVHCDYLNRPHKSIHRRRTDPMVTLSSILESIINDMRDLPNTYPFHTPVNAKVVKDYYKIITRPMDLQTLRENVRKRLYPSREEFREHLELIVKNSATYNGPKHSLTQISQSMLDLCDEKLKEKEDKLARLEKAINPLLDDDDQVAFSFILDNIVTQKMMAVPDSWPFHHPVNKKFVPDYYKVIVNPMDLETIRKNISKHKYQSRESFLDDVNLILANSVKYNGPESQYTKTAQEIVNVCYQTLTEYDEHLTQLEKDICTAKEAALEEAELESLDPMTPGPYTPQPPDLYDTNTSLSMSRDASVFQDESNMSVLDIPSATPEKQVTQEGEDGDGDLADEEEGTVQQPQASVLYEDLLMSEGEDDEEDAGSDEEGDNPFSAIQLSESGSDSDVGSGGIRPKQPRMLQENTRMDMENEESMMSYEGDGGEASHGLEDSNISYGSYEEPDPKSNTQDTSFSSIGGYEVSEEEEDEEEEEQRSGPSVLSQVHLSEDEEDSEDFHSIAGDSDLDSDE

| Structure (SMILES) | IC50 [1] [µM] | IC50 [2] [µM] | IC50 [3] [µM] | IC50 [4] [µM] | IC50 [5] [µM] | solubility [6] | IC50 [7] [µM] |
| --- | --- | --- | --- | --- | --- | --- | --- |
| Cc1cc2c(cc1N1C(=O)c3cccc4cc([N+](=O)[O-])cc(c34)C1=O)n(C)c(=O)n2C | 0.185 | 0.082 | 0.058 | > 20 | > 20 |  |  |
| Cc1cc2c(cc1N1C(=O)c3cccc4c(N5CCN(CCN(C)C)CC5)ccc(c34)C1=O)n(C)c(=O)n2C | 1.27 | 0.074 | 0.025 | > 13 | > 15 | 159 µg/mL (≈ 302 µM) | 0.42 |
| Cc1cc2c(cc1N1C(=O)c3cccc4c(N5CCCCC5)ccc(c34)C1=O)n(C)c(=O)n2C | 13.3 | 0.095 | 0.007 |  |  | Insoluble | > 10 |
| Cc1cc2c(cc1N1C(=O)c3cccc4cc(O)cc(c34)C1=O)n(C)c(=O)n2C | 3.69 | 0.102 | 0.013 | > 14.2 | > 20 |  |  |
| Cc1cc2c(cc1N1C(=O)c3cccc4cc(C#N)cc(c34)C1=O)n(C)c(=O)n2C | 2.23 | 0.248 | 0.022 | > 20 | > 20 |  |  |
| CN(C)c1cc2c(cc1N1C(=O)c3cccc4cccc(c34)C1=O)n(C)c(=O)n2C | 0.63 | 0.1 | 0.055 | > 20 | > 20 |  |  |
| Cc1cc2c(cc1N1C(=O)c3cccc4c(N5CCOCC5)ccc(c34)C1=O)n(C)c(=O)n2C | 3.31 | 0.061 | 0.09 | > 16.6 | > 15 | 0.2 µg/mL (≈ 0.438 µM) | 0.613 |
| Cc1cc2c(cc1N1C(=O)c3cccc4c(N5CCN(CC6CC6)CC5)ccc(c34)C1=O)n(C)c(=O)n2C | 1.22 | 0.08 | 0.014 | > 9.6 |  | 139 µg/mL (≈ 273 µM) | 0.863 |
| Cc1cc2c(cc1N1C(=O)c3cccc4c(N5CCCC5)ccc(c34)C1=O)n(C)c(=O)n2C | 4.54 | 0.126 |  | 15.5 | > 15 | 0.1 µg/mL (≈ 0.227 µM) | > 10 |
| Cc1cc2c(cc1N1C(=O)c3cccc4c(N5CCC(O)CC5)ccc(c34)C1=O)n(C)c(=O)n2C | 4.15 | 0.066 | 0.019 | > 12.1 | > 15 | 0.8 µg/mL (≈ 1.7 µM) | 2.12 |
| CN1CCN(c2cc3c(cc2N2C(=O)c4cccc5cccc(c45)C2=O)n(C)c(=O)n3C)CC1 | 0.578 | 0.366 | 1.5 | > 20 | > 20 |  |  |
| Cc1cc2c(cc1N1C(=O)c3cccc4cc(Br)cc(c34)C1=O)n(C)c(=O)n2C | 1.9 | 0.124 | 0.017 | > 17 | > 20 |  |  |
| Cn1c(=O)n(C)c2cc(N3C(=O)c4cccc5cccc(c45)C3=O)c(Br)cc21 | 0.855 | 0.153 | 0.087 | > 20 | > 20 |  |  |
| Cc1cc2c(cc1N1C(=O)c3cccc4c(N5CCN(C)CC5)ccc(c34)C1=O)n(C)c(=O)n2C | 1.01 | 0.093 | 0.004 | > 14.5 | > 15 | 287 µg/mL (≈ 611 µM) | 1.24 |
| Cc1cc2c(cc1N1C(=O)c3cccc4cc(N)cc(c34)C1=O)n(C)c(=O)n2C | 5.51 | 0.063 | 0.033 | > 9.95 | > 20 |  |  |
| Cc1cc2c(cc1N1C(=O)c3cccc4c(CCCCO)ccc(c34)C1=O)n(C)c(=O)n2C | 2.3 | 0.07 | 0.007 | > 11.9 | > 15 | 10 µg/mL (≈ 22.5 µM) |  |
| Cc1cc2c(cc1N1C(=O)c3cccc4c(Br)ccc(c34)C1=O)n(C)c(=O)n2C | 0.591 | 0.051 | 0.004 | > 9.5 | > 20 |  |  |
